One may read the clearance as a measure of how efficiently the substance is removed, as volume per time. Low readings indicate inefficient removal, high ones efficient removal. The half-life is how long it takes for the measured level to halve. As a reminder, the AUC(0-t) is the area under the concentration-time curve up to a stated or last time point. Low readings indicate less exposure, high ones more exposure. Broadly, the AUC is the area under the concentration-time curve, a measure of exposure. The low end stands for less exposure, the high end for more exposure. By MRT is commonly meant a mean duration of stay, worked out from the concentration-time curve. The Vd is the apparent volume that relates the amount in the body to the concentration in plasma or blood. The low end stands for little distribution into tissue, the high end for wide distribution into tissue.

The values that follow come from patent publication US20060094668A1 (Wyeth, priority 2004, published 2006).

The conditions of series [1]: literature case reports and studies; cited from earlier work.
A short description of series [2]: Urinary digoxin pharmacokinetics (Ae, CLr), digoxin alone vs with tigecycline. The following applies: N = 20; for CL renal: human, urine and plasma, oral, 0.25 mg, CLr. The text has this:
In addition, a 24-hour urine collection (day 14 to day 15) for PK analysis was completed for each subject.
Subjects were required to void completely at the end of the predose period and at the end of each time interval after dose administration to ensure a complete interval collection.
Pharmacodynamic Assessments

The nature of series [3]: clinical. The following applies: human, in vivo; for AUC(0-t): AUC0-12 h; for Vd: Vss. As to the method: One (1) hour after a medium-fat meal, and after a predose 7-mL blood sample for a baseline tigecycline PK analysis, each subject received a single 100-mg dose of tigecycline.
Venous blood samples (7 mL each) for determination of tigecycline concentrations in serum were collected at the following times: on day 1, predose (within 2 hours before the start of the tigecycline infusion), and at 0.5 (end of infusion), 1, 1.5, 2, 3, 4, 6, 8,12,16, 24, 36, 48, 72, and 96 hours after tigecycline administration; and on day 19, predose, and at 0.5 (end of infusion), 1,1.5, 2, 3, 4, 6, 8, 12,16, 24, 36, 48, 72, and 96 hours after tigecycline administration.
Serum tigecycline samples were analyzed by a validated liquid chromatography/tandem mass spectroscopy (LC/MS/MS) method.
Tigecycline peak serum concentration (Cmax) and time to peak concentration (tmax) were reported from the observed data. Concentrations that were judged to be in the terminal phase were used to obtain the terminal-phase disposition rate constant (λz) by log-linear regression. The half-life (t1/2) was calculated as 0.693/λz. Tigecycline concentrations over the time period from hours 24 to 96 were used to estimate the t1/2.
Total AUC0-εr and AUMC were estimated as follows: AUC=(AUCt)+Ct/λz, and AUMC=(AUMCt)+tlast·Ct/λz+Ct/λz●2
The IV clearance (CL) was calculated and normalized by body weight (WT) as follows: CL=Dose/(AUC●WT). The apparent Vss was estimated by Vss=CL·MRT.
For this period of the study, the MRT was calculated as: MRT=(AUMC0-t+(t·Ctλz))/AUC0-t.
According to linear PK theory, (Gibaldi M, Perrier D. Pharmacokinetics. Marcel Dekker, Inc., 1982) the total AUC after a single dose (AUC0-∞) is equal to AUC over the dose interval τ at steady state (AUC0 τ).
For statistical comparisons, AUC, MRT, and Vss on day 1 (period 1) were based on concentrations normalized to the 50-mg tigecycline dose given during period 3.
(§1) Geometric least-squares (GLS) mean ratios of tigecycline PK parameters were computed, and their associated 90% confidence intervals (Cls) calculated based on least squares means and the mean square error obtained from the 2-way ANOVA. […] The SAS statistical software package was used for all statistical analyses.

The nature of series [4]: clinical. The conditions noted are these: human, in vivo. As to the method:
Both study medications were always administered 1 hour after a medium-fat meal. Tigecycline was administered intravenously (IV) in […] sterile normal saline over 30 minutes for all doses.
At approximately 8 AM, each subject received 100 mg of tigecycline. […] At approximately 8 PM, each subject received 50 mg of tigecycline.
In addition, on days 16 through 18, each subject received 50 mg of tigecycline every 12 hours (at approximately 8 AM and 8 PM).
All samples were collected from an indwelling catheter or by direct venipuncture into blood collection tubes containing ethylenediaminetetraacetic acid.
The Cmax and tmax values were taken directly from the observed data. The λz and t1/2 values were not estimable because blood samples were not collected during the terminal disposition phase.
Vss/F and MRT could not be calculated because λz could not be estimated.
as §1

Series [5] is classed as in vivo, human.
Source text: On each day before the start of study periods 1 and 2 (day-1 and day 6), all subjects underwent physical examinations, laboratory tests, vital sign assessments, and a standard 12-lead electrocardiogram (ECG), which included measurements of rhythm, heart rate, PR, QRS, QT, and QTc intervals. Adverse event monitoring was continuous, and blood samples for PK analysis was completed at the designated times throughout all study periods. Before dose administration on days 1, 7 and 15, 3 complete ECGs were performed for each subject, and the mean value used as the subject's baseline for each corresponding period.
Twelve (1 2)-lead ECGs were performed at screening, on day-1, on days 1, 7, 14, 15, and 19 within 2 hours before study drug administration, on days 2 through 6, 8 through 13, 16 through 18, 20, 21, and 22, and at the final evaluation at approximately 8 AM.
Descriptive statistics were obtained for all demographic characteristics, drug concentrations, PK parameters, and changes from baseline in ECG parameters. Analysis of variance (ANOVA) was performed on the natural logarithm-transformed PK parameters to evaluate treatment and subject effects. An analysis of the change from baseline in ECG parameters with and without multiple-dose tigecycline administration was conducted by using ANOVA, which included terms for subject and treatment effects. […]

As to `CC[C@H]1OC(=O)[C@H](C)[C@@H](O[C@H]2C[C@@](C)(OC)[C@@H](O)[C@H](C)O2)[C@H](C)[C@@H](O[C@@H]2O[C@H](C)C[C@H](N(C)C)[C@H]2O)[C@](C)(OC)C[C@@H](C)C(=O)[C@H](C)[C@@H](O)[C@]1(C)O` [Clarithromycin], the “effect on plasma levels of digoxin” value in series [1] was “increase plasma levels of digoxin, sometimes to toxic levels”.
Regarding `C[C@H]1O[C@@H](O[C@H]2[C@@H](O)C[C@H](O[C@H]3[C@@H](O)C[C@H](O[C@H]4CC[C@@]5(C)[C@H](CC[C@@H]6[C@@H]5C[C@@H](O)[C@]5(C)[C@@H](C7=CC(=O)OC7)CC[C@]65O)C4)O[C@@H]3C)O[C@@H]2C)C[C@H](O)[C@@H]1O` [Digoxin], the “Ae, urinary digoxin, Geo. Mean” value in series [2] is listed as 40.3%. This compound showed a CL renal in series [2] (digoxin renal clearance, Mean ± SD) of 1.82 ± 0.37 mL/min/kg. Also, the CL renal in series [2] (digoxin, Geo. Mean) stood at 1.79 mL/min/kg. Also, the “Ae, urinary digoxin, Mean ± SD” value in series [2] (percentage of dose excreted unchanged in urine 0-24 h) amounted to 41.3 ± 9.0%. In addition, the “effect on the AUC, CL, or MRT of tigecycline” value in the series “clinical [3]” is given as “did not affect”. In “clinical [4]”, this compound returned a concentration at 0 h of 0.405 ng/mL, a concentration at 0.5 h of 0.686 ng/mL, a concentration at 1 h of 1.02 ng/mL and a concentration at 2 h of 0.966 ng/mL. In “clinical [4]”, this compound yielded a concentration at 4 h of 0.645 ng/mL, a concentration at 6 h of 0.517 ng/mL, a concentration at 8 h of 0.531 ng/mL and a concentration at 10 h of 0.451 ng/mL. In the series “clinical [4]”, this compound showed a concentration at 12 h of 0.405 ng/mL, a concentration at 16 h of 0.383 ng/mL and a concentration at 24 h of 0.33 ng/mL.
On to `CN(C)c1cc(NC(=O)CNC(C)(C)C)c(O)c2c1C[C@H]1C[C@H]3[C@H](N(C)C)C(O)=C(C(N)=O)C(=O)[C@@]3(O)C(O)=C1C2=O` [Tigecycline], for which the “effect on steady-state digoxin PD as measured by changes from baseline in ECG parameters” value in series [5] (PR, QRS, QT, QTc intervals at 24 hours) is listed as “did not produce significant changes”. The “QT interval, change from baseline” value in series [5] (in vivo) is “not changed further”. In “clinical [3]”, the clearance was 3.7 mL/min/kg and the half-life was 26.7 h. In the series “clinical [3]” (serum tigecycline, Geo. Mean), this compound showed an AUC(0-t) of 2450 ng·h/mL, an MRT of 29 h and a Vd of 6.43 L/kg. In “clinical [3]” (serum tigecycline, Mean ± SD), this compound returned an AUC(0-t) of 2480 ± 379 ng·h/mL, an MRT of 30 ± 8.3 h and a volume of distribution (Vd) of 6.53 ± 1.3 L/kg. For the same compound, the AUC in “clinical [3]” (AUC, serum tigecycline, Mean ± SD) came out at 2840 ± 732 ng·h/mL. The clearance in “clinical [3]” (iv) was 3.82 mL/min/kg.
